The experiment in a line: Antioxidant activity assessed as DPPH free radical scavenging activity incubated for 30 mins in dark. In kind it is functional. (Loss of DPPH colour is used to gauge radical scavenging.)

The source of these data is ChEMBL document CHEMBL3861944 (Medchemcomm, 2016).

For orientation: IC50 means the concentration that inhibits the measured activity by half.

`O=C1O[C@H]([C@@H](O)CO)C(O)=C1O` [ASCORBIC ACID]: the IC50 worked out at 79.3 µM.
